From EP4203925B1, “CANNABINOID COMBINATIONS AND THEIR USE IN THE TREATMENT OF CANCER” (priority 2020, dated 2022)
Where “and” joins values, the source holds several entries; their conditions need not be identical. Identical values can stand only once. Entries after “also recorded” stand apart in the source; their conditions may differ. Like-named read-outs stand apart in the source and are kept apart here.

Legend:
breast cancer cell lines = test: MTT cell viability / checkerboard assay, cell line not given; settings: Homo sapiens, read-out: IC50 values
MCF-7 cells = test: MTT cell viability assay with Chou-Talalay median-effect / combination index analysis; settings: for IC50 / IC75 / IC90: Homo sapiens; for IC75: read-out: Dm (µM) IC75; for IC90: read-out: Dm (µM) IC90
MDA-MB-231 cells = test: as above; settings: for IC50 / IC75 / IC90: Homo sapiens, MDA-MB-231, 48 h; for IC50: read-out: Dm (µM) IC50; for IC75: read-out: Dm (µM) IC75; for IC90: read-out: Dm (µM) IC90
white blood cells = test: Toxicity screening in white blood cells (MTT); format: cell-based, human; settings: B6 (42 µM), C6 (43 µM), 24 hours
Method: MTT solution (5mg/ml, 20 µl) was added to existing media in the wells and the cells were incubated for 3 hours at 37 °C. After the 3 hours, the plate was centrifuged at 1000 x g for 10 minutes, the spent media removed and the formazan crystals solubilised in 100 µl DMSO. The plate was then shaken for 1 minute and the absorbance read at 550nm.
Blood samples were obtained from healthy volunteers (n=3, 16 ml/person) in ethylenediaminetetraacetic acid (EDTA) vacutainers. The samples were centrifuged at 500 x g for 10 minutes, the plasma (top layer) removed and the buffy coat collected. The buffy coat was then centrifuged at 2000 x g for 10 minutes to remove residual plasma while retaining the buffy coat. Lysis buffer (0.16M NH4Cl, 0.01 M KHCO3, 6 mM EDTA; pH 7.3) was added to the buffy coat in a 9:1 ratio (lysis buffer:buffy coat) and the mixture vortexed for 10 seconds, followed by a 10 minute incubation at room temperature. The sample was then centrifuged at 2000 x g for 10 minutes and the pellet retained (containing white blood cells). […] White blood cells were stained with trypan blue and counted using a haemocytometer. […]
The potential toxicity induced by the selected treatments (B6 and C6) were evaluated in two ways: 1) screening in the normal breast cells, MCF-10A and 2) determining the cytotoxicity to white blood cells isolated from human volunteers (Figure 14).

[1] = MCF7, 48 h, read-out: Dm (µM) IC50
[2] = MCF7, read-out: Required concentration of cannabinoids: Individual

Row | SMILES | IC50 (breast cancer cell lines) | IC50 (MCF-7 cells; [1]) | IC75 (MCF-7 cells; MCF7, 48 h) | IC90 (MCF-7 cells; MCF7, 48 h) | IC50 (MCF-7 cells; [2]) | IC50 (MDA-MB-231 cells) | IC75 (MDA-MB-231 cells) | IC90 (MDA-MB-231 cells) | Dm (µM) IC75 (MCF-7 cells) | Required concentration of cannabinoids: Individual (MCF-7 cells) | Dm (µM) IC75 (MDA-MB-231 cells) | growth inhibition / cytotoxicity (white blood cells)
1 | C=C(C)[C@@H]1CCC(C)=C[C@H]1c1c(O)cc(CCCCC)cc1O [CBD, cannabidiol] | 19 µM | 20.6 µM | 30.2 µM | 44.4 µM | 20.6 µM | 14.7 µM | 26.4 µM | 47.4 µM |  |  |  | 
2 | CCCCCc1cc(O)c(C/C=C(\C)CCC=C(C)C)c(O)c1 [CBG, cannabigerol] | 30 µM | 26.9 µM | 33 µM | 40.5 µM | 26.9 µM | 24.9 µM | 28.1 µM | 31.8 µM |  |  |  | 
3 | CCCCCc1cc(O)c2c(c1)OC(C)(C)c1ccc(C)cc1-2 [CBN, cannabinol] | 25 µM | 23.4 µM | 26.6 µM | 30.2 µM | 23.4 µM | 22.5 µM | 25.7 µM | 29.3 µM |  |  |  | 
4 | CCCCCc1cc(O)c2c(c1)OC(C)(C)[C@@H]1CCC(C)=C[C@@H]21 [THC, Δ^9-tetrahydrocannabinol] | 32 µM | 32.2 µM |  | 57.7 µM | 32.6 µM | 30 µM |  | 49 µM | 43.11 µM | 39.23 µM (2×) and 47.24 µM (2×) | 38.33 µM | 
5 | CC[C@@]1(O)C(=O)OCc2c1cc1n(c2=O)Cc2cc3ccccc3nc2-1 [camptothecin] |  |  |  |  |  |  |  |  |  |  |  | lack of growth inhibition; also recorded: limited cytotoxicity
